The values below come from EPA's ToxValDB 9.5 (doi:10.2903/j.efsa.2009.1415).

As a reminder, the NOAEL is the highest tested level that showed no adverse finding.

One series has as its system Typhlodromus pyri. As to the kind of experiment: LR50; higher = less toxic. Particulars: not reported; mortality.
The next series has as its system Cyprinus carpio. Particulars: acute; duration: 96 hours; mortality.
In the next series the test system is Apis mellifera. Particulars: acute; duration: 48 hours; dermal; mortality.
A further series concerns Anas platyrhynchos. Particulars: short-term; oral; feed; mortality.
The test system of another series is Pimephales promelas. Particulars: chronic/long-term; duration: 35 days; growth.
Another series relates to Daphnia magna. To be noted: chronic/long-term; duration: 21 days; reproduction.

In brackets after ≈: the same amount, converted by molar mass. Bounds are passed on as bounds.

In turn, `CCCOCC(=Nc1ccc(Cl)cc1C(F)(F)F)n1ccnc1` [Triflumizole] yielded an LR50 in the series on Typhlodromus pyri of 63 g/ha. The LC50 was 1.28 µg/mL (≈ 3.7 µM) in the series with Cyprinus carpio and greater than 1430 mg/kg-day in the series with Anas platyrhynchos. Moreover, the LD50 with Apis mellifera is greater than 20 µg/piece; in the series on Rattus norvegicus (acute, oral, mortality) it was 1060 mg/kg-day; in the series on Colinus virginianus (acute, oral, mortality) it was greater than 2510 mg/kg-day. Also, the NOAEL in the series on Rattus norvegicus (chronic, duration: 2 years, organ weight) amounted to 3.5 mg/kg-day; in the series on Rattus norvegicus (developmental, development), 10 mg/kg-day; with Rattus norvegicus (reproduction developmental, reproduction), 4.8 mg/kg-day; with Rattus norvegicus (subchronic, duration: 90 days, organ weight), 4.1 mg/kg-day. Also, the NOEC in the series on Pimephales promelas was 0.044 mg/L; in the series on Daphnia magna it was 0.18 mg/L; in the series with Colinus virginianus (reproduction developmental), no less than 97.2 mg/kg-day.
